Read-outs that look alike come from different tables or passages of the source.

Test [1] concerns tryptophan auxotrophs with wild-type trpS allele able to actively transport tryptophan. As to the kind of experiment: Growth response to tryptophan, auxotrophs with wild-type trpS and active transport. The format is cell-based, Escherichia coli. Particulars: minimal medium.
Test [2] deals with anthranilate synthase (wild-type strains). Conditions: read-out: tryptophan concentration giving about 50% inhibition of anthranilate synthase activity; cited from earlier work.
In test [3] the test system is tryptophan auxotroph unable to actively transport tryptophan (JP7847). Kind of test: Growth response to tryptophan, trpS+ auxotroph defective in active transport. The format is cell-based, Escherichia coli. Particulars: minimal medium. The text has this: (§1) JP6006 is derived from JP4153 by introduction of ΔtrpLE1413 by P1 transduction using TN10 as a linked marker and isolation of a tetracycline-sensitive derivative, followed by introduction of sac^+ by P1 transduction, using a P1 lysate grown on sac^+ strain GA122 (Alaeddinoglu, N. G. and H. P. Charles. (1979). J. Gen. Microbiol. 110: 47-59). JP4153 is aroF363 aroG103(FBR) aroH371(FBR) trpE382(FBR) trpR363 tyrR366 trpS378 aroP579 mtr-24 tna-1. JP7847 is a trpS^+ derivative of JP6006, isolated by P1 transduction.
(§2) Cells were grown in minimal medium supplemented with different levels of tryptophan at 30° C. Growth was measured by optical density with a Klett colorimeter and doubling times were calculated from the exponential phase of each growth curve.

Test [4] relates to transport negative tryptophan auxotroph carrying trpS378 (JP6006). Kind of test: Growth response to tryptophan, trpS378 auxotroph defective in active transport. The format is cell-based, Escherichia coli.
Text: as §1, §2

The target of test [5] is anthranilate synthase encoded by trpE382 (Escherichia coli, UniProt P00895). Kind of test: Feedback inhibition of anthranilate synthase by tryptophan, trpE382 enzyme. The format is biochemical.
In test [6] the target is anthranilate synthase encoded by trpE483 (Escherichia coli, UniProt P00895). Kind of test: Feedback inhibition of anthranilate synthase by tryptophan, trpE483 enzyme. It is filed as biochemical. Conditions: tryptophan 13.5 g/l. From the text: Plasmid pMU3018 (FIG. 6) carries the tip promoter, the trpE gene and part of the trpD gene on a 2.9 kb SmaI HindIII fragment. pMU3018 is derived from pMU578, which is a single-copy Tp^R plasmid carrying a galK'-lac'ZA fusion, similar to the promoter cloning vector pMU575 (Andrews, A. E., B. Lawley, and A. J. Pittard. (1991). J. Bacteriol. 173: 5068-5078), but with a SmaI EcoRI BglII linker replacing the SmaI site, and the DraI fragments removed, deleting lacY and lacA. If pMU3018 DNA is digested with these two enzymes and the fragments electrophoresed in a low melting point agarose gel it is a simple matter to separate and purify the trpEtrpD' 2.9 kb fragment and the larger 13 kb vector fragment. This 2.9 kb fragment was mutagenised with 50 mM nitrous acid for 60 minutes following the method of Ray et al. (Ray, J. M., C. Yanofsky and R. Bauerle. (1988). J. Bacteriol. 170: 5500-5506), except that spermine (1 mM) was added to the mutagenesis mixture. […]

The subject of test [7] is anthranilate synthase of feedback-resistant mutants. Particulars: cited from earlier work.
In test [8] the target is T1, anthranilate synthase encoded by trpE476 (Escherichia coli, UniProt P00895).
T1 construct: plasmid pMU3019 in trpE-deleted JP6768 (trpDCBA functional), also trpE476DCBA on pMU91
Kind of test: Feedback inhibition of anthranilate synthase by tryptophan, trpE476 enzyme. It is filed as biochemical. The text has this:
Plasmid pMU3018 (FIG. 6) carries the tip promoter, the trpE gene and part of the trpD gene on a 2.9 kb SmaI HindIII fragment. pMU3018 is derived from pMU578, which is a single-copy Tp^R plasmid carrying a galK'-lac'ZA fusion, similar to the promoter cloning vector pMU575 (Andrews, A. E., B. Lawley, and A. J. Pittard. (1991). J. Bacteriol. 173: 5068-5078), but with a SmaI EcoRI BglII linker replacing the SmaI site, and the DraI fragments removed, deleting lacY and lacA. If pMU3018 DNA is digested with these two enzymes and the fragments electrophoresed in a low melting point agarose gel it is a simple matter to separate and purify the trpEtrpD' 2.9 kb fragment and the larger 13 kb vector fragment. This 2.9 kb fragment was mutagenised with 50 mM nitrous acid for 60 minutes following the method of Ray et al. (Ray, J. M., C. Yanofsky and R. Bauerle. (1988). J. Bacteriol. 170: 5500-5506), except that spermine (1 mM) was added to the mutagenesis mixture. After mutagenesis, the fragment was religated with the larger 13 kb fragment and the products of ligation were transformed into strain JP6768, an E. coli strain which is trpR^-, and in which the trpE gene has been deleted from the chromosome but trpDCB and A are fully functional (ΔtrpLE1413 (Miozzari, G. F. and C. Yanofsky. (1978). J. Bacteriol. 133: 1457-1466). Approximately 2,000 transformants were selected on Luria agar containing trimethoprim. These were screened for growth on minimal medium supplemented with the tryptophan analogue 5-fluorotryptophan at 15 mM. Clones which grew were potential feedback-resistant mutants altered in the enzyme anthranilate synthase. The anthranilate synthase activity of each of these clones was assayed in the presence of very high levels of tryptophan (13.5 g/l) using the assay described in Cho, K-O. and C. Yanofsky. (1988). J. Mol. Biol. 204: 41-50. […] The mutant allele present in this strain was called trpE483. […] FIG. 4 compares the feedback sensitivity of anthranilate synthase from a strain with the wild-type allele (JP6768/pMU3018) and strains with the trpE483 allele (JP6768/pMU3025) and with the trpE476 allele (JP6768/pMU3019).
The effect of temperature of incubation on both stability and productivity for an overproducing strain carrying the trpS378 allele and a plasmid carrying the trp operon encoding a feedback-resistant anthranilate synthase, is shown in FIG. 2. Low temperatures favour high stability and low productivity, whilst higher temperatures favour productivity at the expense of stability. […] The data in FIG. 2 is for JP6015/pMU91 and the primary selection is for Ser^+. JP6015 is derived from JP4153 (see Example 4) by introduction of sac^+ by transduction,and introduction of serA^- by cotransduction with a closely linked Tn10 transposon, and subsequent selection of a tetracycline sensitive derivative. pMU91 is a plasmid derived from pSC101 (Cohen, S. N. and A. C. Chang (1977). J. Bacteriol. 132: 734-737), carrying Tc^R, trpE476DCBA and serA^+ (see FIG. 9). The trpE476DCBA alelle was isolated using the specialized transducing phage .PHI.80pt190h (Herschfield, V. et al (1974). Proc. Natl. Acad. Sci. USA 71:3455-3459). A trpE^- strain carrying .PHI.80pt190h was plated on minimal medium containing 1 mM 5-methyltryptophan (5MT). A pool of cells was induced by ultraviolet light to produce a lysate which was used in a subsequent transduction, selecting Trp^+ 5MTR transductants. […]

Regarding `N[C@@H](Cc1c[nH]c2ccccc12)C(=O)O` [tryptophan, L-tryptophan], the “tryptophan level supporting growth at a fast rate” value in test [1] worked out at 50 µM. The IC50 was approximately 0.02 mM in test [2]; more than 20 mM in test [7] (mutants conferring higher feedback-resistance (Aiba et al. 1982), read-out: 50% inhibition values); approximately 13 mM in test [7] (mutants typically chosen for tryptophan overproduction (Aiba et al., CA 1182409), read-out: tryptophan concentration at which the 50% inhibition figure occurred). Also, the “tryptophan level required for optimal growth” value in test [3] was ~ 10^-3 M. The “tryptophan level at which the strain grows with a normal doubling time” value in test [3] (FIG. 1) was not below 1 mM. Besides, in test [4] (30° C., FIG. 1), the “tryptophan required for good growth” value is listed as “at least 5 mM”. Further, in test [4] (minimal medium), the “tryptophan concentration before maximum growth rate is achieved” value came to 5 mM. The inhibition of activity result in test [5] (1 mM tryptophan) was “less than 10%”; in test [6] it was “less than 10%”; in test [8] (1 mM tryptophan), “less than 10%”; in test [8] (tryptophan 13.5 g/l) it was “more than 60%”. Moreover, the “inhibition of anthranilate synthase” value in test [5] (tryptophan 12 g/l (60 mM)) and in test [8] (tryptophan 12 g/l (60 mM)) was 60-80% each time. The “anthranilate synthase activity, % of full activity” value in test [8] (10 mM L-tryptophan) was 70%. For the same compound, the “resistance to feedback inhibition” value in test [8] (tryptophan 1 g/l) was “good resistance”.

The values above are taken from patent US5756345A, “Production of tryptophan by the bacterium Escherichia coli” (Degussa Aktiengesellschaft, priority 1995, dated 1998).
